This is an account of results in US7045495B2 (Sloan-Kettering Institute for Cancer Research, priority 1996, dated 2006).

Series [1] has as its system MDA-MB-468 cells. Nature of the series: cell proliferation studies. In kind it is cell-based, human.
The subject of series [2] is 16C mammary carcinoma. As to conditions: safingol 5 to 20 mg/kg; cited from earlier work.
A short description of series [3]: preclinical pharmacology of safingol. As to conditions: mouse, in vivo, mice. As for the experimental part: Based on the mice studies applicants have predicted that in order to achieve meaningful chemopotentiation with either DOX or cisplatin applicants need to deliver the equivalent mouse dose of 5 mg/kg to 20 mg/kg safingol. […] From the pharmacology data obtained thus far from the patients treated with escalating doses of safingol and 45 mg/m^2 of DOX, it appears that applicants are approaching these target levels.

The conditions of series [4]: intravenous safingol in emulsion; cited from earlier work.
Series [5] relates to MKN-74. Nature of the series: cytotoxicity, Alamar Blue Assay. In kind it is cell-based, human. The conditions noted are these: 24 hours; RO 32-2241 10^-6 M, Mitomycin-C 5 μg/ml. The text has this:
It has been shown that PKC activity can act as an antagonist to apoptosis, whereas PKC inhibition can promote apoptosis. These observations imply that one function of PKC stimulated processes is to inhibit the induction of programmed cell death. Thus, anti-tumor effects of chemotherapeutic agents may be potentiated by PKC inhibitors that contribute to the induction of apoptosis after drug-induced damage. In order to test this hypothesis we have used the human gastric cancer cell MKN-74 to determine whether RO 32-2241 would enhance the cytotoxic effect of the chemotherapeutic agent Mitomycin-C (MMC). Cytotoxicity was measured and quantified using the Alamar Blue Assay. Cells were treated according to one of four conditions: (i) no drug (control) for 24 hours, (ii) RO 32-2241 alone at 10–6 M, (iii) Mitomycin-C alone at 5 μg/ml for 24 hours, (iv) the combination of RO 32-2241 (10^-6 M) and Mitomycin-C (5 μg/ml) for 24 hours. The results are summarized below for percent survival: […]
Background: The colour change of resazurin is a common sign of viable cells or microbes.

What is called AUC is concentration integrated over time. The Cmax is the highest concentration seen after dosing.

Molecules are shown by their SMILES.

As for `CCCCCCCCCCCCCCC[C@H](O)[C@@H](N)CO` [safingol, L-threo-dihydrosphingosine], the “highest non-toxic dose (cell proliferation studies)” value in series [1] came out at 50 µM. The “effect on tumor cell growth, single agent” value in series [2] is reported as “no effect on inhibiting tumor cell growth”. In series [3] (5 mg/kg safingol), the AUC was 668 ng·h/mL and the Cmax turned out to be 1800 ng/mL. Also, in series [3] (20 mg/kg safingol), the AUC was 2700 ng·h/mL and the Cmax came to 7020 ng/mL. Moreover, in series [4], the “clinical pathology and histopathology findings” value was “venous irritation and transient intravascular hemolysis”.
For `CO[C@@]12[C@H](COC(N)=O)C3=C(C(=O)C(C)=C(N)C3=O)N1C[C@@H]1N[C@@H]12` [MMC, Mitomycin-C], in series [5], the Percent survival came out at 87%.
